Laboratory results reported in patent US20100173914A1, “PHARMACEUTICALS, COMPOSITIONS AND METHODS OF MAKING AND USING THE SAME” (priority 2007, published 2010).

How the values were obtained:
[1] = target: T1, human adenosine A1 receptors (Homo sapiens, UniProt P30542); test: Adenosine receptor binding: binding affinities at hA1 receptors ([3H]DPCPX displacement); details: displacement of [3H]DPCPX, membranes of CHO-K1 cells transfected with human A1
T1 construct: expressed in transfected cells; host or cells: CHO-K1
T1 sequence (P30542 1-326): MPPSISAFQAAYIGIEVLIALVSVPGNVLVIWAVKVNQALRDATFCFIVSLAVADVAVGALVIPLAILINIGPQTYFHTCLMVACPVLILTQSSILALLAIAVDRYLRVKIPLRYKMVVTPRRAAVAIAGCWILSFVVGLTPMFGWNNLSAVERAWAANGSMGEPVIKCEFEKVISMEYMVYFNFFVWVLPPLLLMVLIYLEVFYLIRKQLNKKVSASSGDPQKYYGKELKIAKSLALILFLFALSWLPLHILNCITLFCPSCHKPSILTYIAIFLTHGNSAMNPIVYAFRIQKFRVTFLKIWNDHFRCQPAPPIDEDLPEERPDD
Text: Adenosine Receptor Binding: Binding Affinities at hA1 Receptors
The compounds were examined in an assay measuring in vitro binding to human adenosine A1 receptors by determining the displacement of the adenosine A1 receptor selective radioligand 8-Cyclopentyl-1,3-dipropylxanthine ([^3H]DPCPX) using standard techniques. See, for example, Lohse M J, et al., (1987), 8-Cyclopentyl-1,3-dipropylxanthine (DPCPX)—a selective high affinity antagonist radioligand for A1 adenosine receptors. Naunyn Schmiedebergs Arch Pharmacol., 336(2):204-10, which is incorporated by reference in its entirety.
Frozen CHO-K1 cells (transfected with a human adenosine A1 recepter expression vector) were homogenized in 130 mL of 50 mM Tris HCl buffer (pH 7.5) containing 10 mM MgCl2, and 0.1 IU/mL adenosine deaminase per pellet using a Ultra-Turrax homogeniser. The resultant homogenate was kept for immediate use in the binding. Binding assays were performed in a total volume of 250 μL, containing [^3H]-DPCPX (3.0 nM), membranes and additional drugs. Total binding was determined using drug dilution buffer (50 mM Tris-HCl pH:7.5, 10 mM MgCl2, 5% DMSO). Non-specific binding was determined using 300 μM N6-cyclohexyladenosine (CHA). Following incubation for 90 minutes at 21° C., assays were terminated by rapid filtration with GF/B filters (presoaked in 0.1% (w/v) polyethylenimine) using a Canberra Packard filtermate 196, washed 3 times with ice-cold Tris-HCl (pH 7.4). Filters were left to dry overnight, and Microscint-0 scintillation fluid was then added to the filters. The filters were then left for at least 2 hours before the radioactivity was assessed using a Canberra Packard TopCount microplate scintillation counter.
To determine the free ligand concentration, three vials were counted with 25 μL of [^3H]DPCPX containing 4 mL of Ultima-Gold MV scintillant on a Beckman LS6500 multi-purpose scintillation counter.
(§1) Data was analysed using a 4 parameter logistical equation and non-linear regression which yields affinity constants (pIC50), and slope parameters:
where E is the quantity of binding and [A] is the competitor concentration. The K, is then determined using the Cheng-Prusoff equation: […]

[2] = target: T2, human adenosine A2A receptors (Homo sapiens, UniProt P29274); test: Adenosine receptor binding: binding affinities at hA2A receptors ([3H]CGS-21680 displacement); details: for Ki: displacement of [3H]CGS-21680, HEK-293 cell membranes; for A2A/A1 selectivity ratio (Ki A2A/Ki A1): ratio of measured Ki values at hA2A and hA1
T2 construct: host or cells: HEK-293
T2 sequence (P29274 whole entry): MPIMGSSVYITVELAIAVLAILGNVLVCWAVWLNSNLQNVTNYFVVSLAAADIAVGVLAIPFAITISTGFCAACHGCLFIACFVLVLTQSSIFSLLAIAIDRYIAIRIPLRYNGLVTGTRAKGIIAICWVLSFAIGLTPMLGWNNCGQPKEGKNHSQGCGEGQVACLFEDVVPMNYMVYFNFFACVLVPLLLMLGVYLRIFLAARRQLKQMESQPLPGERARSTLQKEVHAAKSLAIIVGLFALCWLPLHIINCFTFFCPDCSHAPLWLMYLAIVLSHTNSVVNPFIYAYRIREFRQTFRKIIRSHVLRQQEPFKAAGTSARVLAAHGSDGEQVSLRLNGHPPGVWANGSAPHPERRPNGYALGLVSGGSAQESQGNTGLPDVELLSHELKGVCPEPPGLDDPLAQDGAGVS
Text: Adenosine Receptor Binding: Binding Affinities at hA2A Receptors
The compounds were examined in an assay measuring in vitro binding to human adenosine A2A receptors by determining the displacement of the adenosine A2A receptor selective radioligand 4-[2-[[6-Amino-9-(N-ethyl-β-D-ribofuranuronamidosyl)-9H-purin-2-yl]amino]ethyl]benzenepropanoic acid hydrochloride ([^3H]CGS-21680) using standard techniques. See, for example, Jarvis et al., J Pharmacol Exp Ther., 251(3):888-93, which is incorporated by reference in its entirety.
Frozen HEK-293 cells were homogenized in 65 mL of 50 mM Tris HCl buffer (pH 7.5) containing 10 mM MgCl2, and 0.1 IU/mL adenosine deaminase per pellet using a Ultra-Turrax homogenizer. The resultant homogenate was kept for immediate use in the binding assay.
Binding assays were performed in a total volume of 250 μL, containing [^3H]-CGS21680 (20.0 nM), membranes and additional drugs. Total binding was determined using drug dilution buffer (50 mM Tris-HCl pH 7.5, 10 mM MgCl2, 5% DMSO). Non-specific binding was determined using 300 μM CHA. Following incubation for 90 minutes at 21° C., assays were terminated by rapid filtration with GF/B filters (presoaked in 0.1% (w/v) polyethylenimine) using a Canberra Packard filtermate 196, washed 3 times with ice-cold Tris-HCl (pH 7.4). Filters were left to dry overnight, and Microscint-0 scintillation fluid was then added to the filters. The filters were then left for at least 2 hours before the radioactivity was assessed using a Canberra Packard TopCount microplate scintillation counter.
To determine the free ligand concentration, three vials were counted with 25 μL of [^3H]CGS21680 containing 4 mL of Ultima-Gold MV scintillant on a Beckman LS6500 multi-purpose scintillation counter.
as §1
where E is the quantity of binding and [A] is the competitor concentration. The Ki is then determined using the Cheng-Prusoff equation: […]

SMILES | Ki [1] [µM] | Ki [2] [µM] | A2A/A1 selectivity ratio (Ki A2A/Ki A1) [2]
Nc1nc(-c2ccco2)c2nnn(Cc3cccc(NS(=O)(=O)O)c3)c2n1 [3-[(5-amino-7-(furan-2-yl)-3H-[1,2,3]triazolo[4,5-d]pyrimidin-3-yl)methyl]-phenylsulfamic acid] | 1 to 10 | 0.1 to 1 | H (more than 20)
Nc1nc(-c2cccs2)c2nnn(Cc3cccc(NS(=O)(=O)O)c3)c2n1 [3-[(5-amino-7-(thiophen-2-yl)-3H-[1,2,3]triazolo[4,5-d]pyrimidin-3-yl)methyl]-phenylsulfamic acid] | 1 to 10 | 0.1 to 1 | G (10 to 20)
Nc1nc(-c2ccccc2)c2nnn(Cc3cccc(NS(=O)(=O)O)c3)c2n1 [3-[(5-amino-7-phenyl-3H-[1,2,3]triazolo[4,5-d]pyrimidin-3-yl)methyl]-phenylsulfamic acid] | 1 to 10 | ≤ 0.1 | G (10 to 20)
COc1cc(Cn2nnc3c(-c4ccccc4OC)nc(N)nc32)ccc1NS(=O)(=O)O [4-[(5-amino-7-(2-methoxyphenyl)-3H-[1,2,3]triazolo[4,5-d]pyrimidin-3-yl)methyl]-2-methoxyphenylsulfamic acid] | > 10 | > 10 | E (less than 5)
COc1ccccc1-c1nc(N)nc2c1nnn2Cc1ccc(NS(=O)(=O)O)c(C)c1 [4-[(5-amino-7-(2-methoxyphenyl)-3H-[1,2,3]triazolo[4,5-d]pyrimidin-3-yl)methyl]-2-methylphenylsulfamic acid] | > 10 | 1 to 10 | E (less than 5)
COc1cc(NS(=O)(=O)O)ccc1Cn1nnc2c(-c3ccccc3OC)nc(N)nc21 [4-[(5-amino-7-(2-methoxyphenyl)-3H-[1,2,3]triazolo[4,5-d]pyrimidin-3-yl)methyl]-3-methoxyphenylsulfamic acid] | > 10 | 1 to 10 | E (less than 5)
COc1ccccc1-c1nc(N)nc2c1nnn2Cc1ccc(NS(=O)(=O)O)cc1 [4-[(5-amino-7-(2-methoxyphenyl)-3H-[1,2,3]triazolo[4,5-d]pyrimidin-3-yl)methyl]phenylsulfamic acid] | > 10 | 1 to 10 | E (less than 5)

More lines, now with the values ahead:

Ki [1] [µM] | Ki [2] [µM] | A2A/A1 selectivity ratio (Ki A2A/Ki A1) [2] | SMILES
1 to 10 | 0.1 to 1 | H (more than 20) | COc1cc(NS(=O)(=O)O)ccc1Cn1nnc2c(-c3ccc(C)o3)nc(N)nc21
1 to 10 | 1 to 10 | E (less than 5) | COc1ccccc1-c1nc(N)nc2c1nnn2Cc1cccc(NS(=O)(=O)O)c1 [3-[(5-amino-7-(2-methoxyphenyl)-3H-[1,2,3]triazolo[4,5-d]pyrimidin-3-yl)methyl]-phenylsulfamic acid]
0.1 to 1 | ≤ 0.1 | H (more than 20) | Cc1ccc(-c2nc(N)nc3c2nnn3Cc2cccc(NS(=O)(=O)O)c2)o1 [3-[(5-amino-7-(5-methylfuran-2-yl)-3H-[1,2,3]triazolo[4,5-d]pyrimidin-3-yl)methyl]phenylsulfamic acid]
0.1 to 1 | ≤ 0.1 | H (more than 20) | COc1cc(Cn2nnc3c(-c4ccc(C)o4)nc(N)nc32)ccc1NS(=O)(=O)O [4-[(5-amino-7-(5-methylfuran-2-yl)-3H-[1,2,3]triazolo[4,5-d]pyrimidin-3-yl)methyl]-2-methoxyphenylsulfamic acid]
0.1 to 1 | ≤ 0.1 | H (more than 20) | Cc1ccc(-c2nc(N)nc3c2nnn3Cc2ccc(NS(=O)(=O)O)c(C)c2)o1 [4-[(5-amino-7-(5-methylfuran-2-yl)-3H-[1,2,3]triazolo[4,5-d]pyrimidin-3-yl)methyl]-2-methylphenylsulfamic acid]
